Literature values as cited in patent US20110105330A1, “C[…]” (priority 2009, published 2011).

Conditions: ph 1.9, 20° C.

Structure (SMILES): O=C(O)CNCP(=O)(O)O [Glyphosate, n-(phosphonomethyl) glycine]
- solubility in water: approximately 10.5 g/L
